# Laboratory results taken from US20040029276A1, “Fish attractants” (priority 2000, published 2004).
# Key:
# carp = assay: Behavioural response of carp in a Perspex flow-through experimental flume; format: in vivo
# Procedure: The behaviour of carp in response to 17,20β-dihydroxy-4-pregnen-3-one was studied in a Perspex flow-through experimental flume. Fish were placed in the flume individually and allowed to acclimatise for a minimum of 1 hour before each experiment. The first set of experiments determined the behavioural response of male (n=5) and female (n=5) carp to serial dilutions of pure and synthetic form of 17,20β-dihydroxy-4-pregnen-3-one. Dilutions ranged from one part in 10^5 to one part in 10^11. The second set of experiments tested the behavioural response of male and female carp (n=6) to the same serial dilutions of synthetic 17,20β-dihydroxy-4-pregnen-3-one as used in Experiment 1, but with the addition of 5 dyed-gelatine pellets on the bottom of the flume. […] This feeding behaviour was characterised by the following: […]
# male and female carp = assay: Electrophysiological and behavioural studies in an experimental behaviour chamber; format: in vivo
# Text: A particular composition which includes either a pure or crude synthetic form of 17,20β-dihydroxy-4-pregnen-3-one with an ethanol carrier has been tested by the inventors in laboratory experiments.
# [1] = tested on: olfactory system of the male fish; settings: olfactory detection of the sex pheromone, Sorenson et al. 1987; cited from earlier work
compound,measurement,setting,value
"C[C@@H](O)[C@@]1(O)CC[C@H]2[C@@H]3CCC4=CC(=O)CC[C@]4(C)[C@H]3CC[C@@]21C [17,20β-dihydroxy-4-pregnen-3-one]",feeding behaviour in carp,carp; added to the behaviour chamber at concentrations ranging from 10^−5 to one part in 10^−10,resulted in feeding behaviour in carp
same,attraction of fish,carp; sexually immature carp,attracted immature carp
same,feeding behaviour in immature carp,carp; sexually immature carp,resulted in feeding behaviour in these individuals
same,feeding behaviour on detection of the hormone,male and female carp; experimental behaviour chamber,results in feeding behaviour
same,detection of the hormone by the fish,male and female carp; pure or crude synthetic form with an ethanol carrier,detected by both male and female carp
same,threshold concentration for the male fish,[1],about 10^−13 M
